Results as given in PubChem BioAssay (NCI).
Several values for one entry are separate records, joined by “and”; a condition that tells them apart may be missing. Equal values may be shown once.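 Cells were grown in 96-well plates and exposed to each compound for 48 hours at five concentrations; endpoints were interpolated linearly between bracketing concentrations, or set to the highest concentration if not reached. At the GI50, growth is halved. The concentration for full growth arrest is given as TGI.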

Tests used:
Experiment in all cases: NCI-60 cell line screen, 48 h
[1] = test system: HOP-92 NSCLC
[2] = test system: M14 melanoma
[3] = test system: TK-10 renal
[4] = test system: HCC-2998 colon
[5] = test system: LOX IMVI melanoma
[6] = test system: 786-0 renal
[7] = test system: A549 NSCLC
[8] = test system: U251 CNS
[9] = test system: SK-MEL-2 melanoma
[10] = test system: MCF7 breast

Row | Structure (SMILES) | TGI [1] | TGI [2] | TGI [3] | TGI [4] [µM] | TGI [5] | TGI [6] | TGI [7] | TGI [8] | TGI [9] | GI50 [1] [µM] | GI50 [2] [µM] | GI50 [3] [µM] | GI50 [4] [µM] | GI50 [5] [µM] | GI50 [6] | GI50 [7] | GI50 [8] | GI50 [10] [µM] | TGI [10] [µM] | GI50 [9]
1 | CCOC(=O)c1cc2c(cn1)[nH]c1cccc(N)c12 | > 100 µM | > 100 µM | > 100 µM | > 100 | > 100 µM | > 100 µM | > 100 µM | > 100 µM |  |  |  |  |  |  |  |  |  |  |  | 
2 | O=c1cc(-c2ccccc2)nc(/C=C(\O)c2ccncc2)n1-c1ccccc1 | > 100 µM | > 100 µM | > 100 µM | > 100 | > 100 µM | > 100 µM | > 100 µM | > 100 µM | > 100 µM |  |  |  |  |  |  |  |  |  |  | 
3 | COC(=O)[C@@]1(O)CC(C)C=C1C=O (stereo partly specified) | > 100 µM | > 100 µM | > 100 µM | > 100 | > 100 µM | > 100 µM | 60.9 µM | 38.4 µM | > 100 µM |  |  |  |  |  |  |  |  |  |  | 
4 | CN(C(=O)C12C3(C(=O)C(C)(C)C)C4C5(C#N)C3C1(C(=O)C(C)(C)C)C5C42C(=O)C(C)(C)C)C(C)(C)C (stereo unspecified) | > 50 µM | > 50 µM | > 50 µM | > 50 |  | > 50 µM | > 50 µM | > 50 µM |  |  |  |  |  |  |  |  |  |  |  | 
5 | COc1cc(F)cc([C@@H](CO)NC(=O)[C@@H](C)N2Cc3ccc(-c4nc(NC5CCOCC5)ncc4Cl)cc3C2=O)c1 | 0.26 µM | 0.962 µM | > 76.8 µM | 57.5 | 11.8 µM | > 100 µM | > 100 µM | > 100 µM |  | 0.0321 | < 0.01 | 0.0624 | 0.0125 | < 0.0181 | 9.23 µM | 0.566 µM | 8.72 µM | 9.67 | 49.6 | 
6 | CCCCCCCCC(O)C#CC(N)=O (stereo unspecified) | 24.3 µM | 25.6 µM | 30.8 µM | 22.4 | 24 µM | 25.3 µM | 36.2 µM | 20.9 µM | 26.3 µM |  |  |  |  |  |  |  |  |  |  | 
7 | NC(=S)N/N=C/c1ccc(O)cn1 | > 1300 µM | 35.6 µM and 25.6 µM | > 1390 µM |  |  | 46 µM and > 408 µM | > 1500 µM and 584 µM | 391 µM and 602 µM |  | 6.73 | 16.3 |  |  | 12.4 | 9.37 µM and 2.96 µM | 33.2 µM and 41.1 µM | 9.35 µM and 6.93 µM | 2.03 | > 1500 | 12.5 µM and 6.35 µM and 57.8 µM
8 | Cc1ccc(-c2cc(=O)c3cc(C)c(C)c(C(=O)O)c3o2)cc1 | > 100 µM | > 100 µM | > 100 µM | > 100 | > 100 µM | > 100 µM | > 100 µM | > 100 µM | > 100 µM |  |  |  |  |  |  |  |  |  |  | 
9 | O=c1oc(-c2ccccc2)cc2cccc(O)c12 | 61.6 µM | > 100 µM | 39.8 µM |  | > 100 µM | > 76.9 µM | > 64.6 µM | 35.1 µM | > 100 µM | 16.8 | > 80.9 | 9.45 |  | 29.7 | 28.7 µM | 24.7 µM | 18 µM | > 28 | > 100 | > 100 µM
10 | C/C(CC(=O)Nc1ccc(Cl)cc1)=N\NC(=O)C[n+]1ccccc1 | > 100 µM | > 100 µM | > 100 µM | > 100 | > 100 µM | > 100 µM | > 100 µM | > 100 µM | > 100 µM |  |  |  |  |  |  |  |  |  |  | 
11 | CC(C)(O)[C@@H]1CC[C@@]2(C)CCC[C@H](O)[C@H]2C1 | > 100 µM | > 100 µM | > 100 µM | > 100 | > 100 µM | > 100 µM | > 100 µM | > 100 µM | > 100 µM |  |  |  |  |  |  |  |  |  |  | 
12 | O=C1C2CC=CCC2C(=O)C12CCc1ccccc12 (stereo unspecified) | > 100 µM | > 100 µM | > 100 µM | > 100 | > 100 µM | > 100 µM | > 100 µM | > 100 µM |  |  |  |  |  |  |  |  |  |  |  | 
13 | CC(=O)OC(C)(C)/C=C/C(=O)[C@](C)(O)[C@H]1[C@H](O)C[C@@]2(C)[C@@H]3CC=C4[C@@H](C[C@H](O)C(=O)C4(C)C)[C@]3(CO)C(=O)C[C@]12C | 0.435 µM and 0.454 µM | 4.12 µM | 0.318 µM and 0.512 µM | 15.1 | 0.492 µM and 0.455 µM | 0.889 µM and 0.475 µM | 22.6 µM | 0.592 µM and 1.52 µM | 0.416 µM and 0.104 µM | 0.282 | 0.0857 | 0.251 |  | 0.0999 | 0.2 µM | 0.273 µM | 0.267 µM |  |  | 0.0339 µM
14 | CN1CCN(C(=O)c2c(NC(=O)NS(=O)(=O)c3ccccc3)sc3c2CCCCC3)CC1 | > 100 µM | 49.8 µM |  | 44.2 | 84.9 µM | 53 µM | > 100 µM |  | > 100 µM | 27.1 | 21.6 |  | 21.9 | 30 | 19.2 µM | 65.7 µM |  | 52.7 | > 100 | 60.3 µM
15 | CN(C)C(=S)/N=c1\ss/c(=N\C(=S)N(C)C)n1-c1ccc(Cl)cc1 | > 100 µM | > 100 µM | > 100 µM |  | > 100 µM | > 100 µM | > 100 µM | > 100 µM | > 100 µM |  |  |  |  |  |  |  |  |  |  | 
16 | O=C(O)C1C(=O)Oc2c(cccc2[N+](=O)[O-])C1O (stereo unspecified) | > 100 µM | > 100 µM | > 100 µM | > 100 | > 100 µM | > 100 µM | > 100 µM | > 100 µM | > 100 µM |  |  |  |  |  |  |  |  |  |  | 
17 | O=C1[C@H]2ON(c3ccccc3)C(c3ccccc3F)[C@H]2C(=O)N1c1ccc(Cc2ccc(N3C(=O)[C@@H]4ON(c5ccccc5)C(c5ccccc5F)[C@@H]4C3=O)cc2)cc1 (stereo partly specified) | > 100 µM | > 100 µM |  | > 100 | > 100 µM | > 100 µM | > 100 µM | > 100 µM | > 100 µM |  |  |  |  |  |  |  |  |  |  | 
18 | Cc1ccc(C(=O)N2c3ccccc3N(C)n3cccc3C2CC(=O)O)cc1 (stereo unspecified) | > 100 µM | > 100 µM | > 100 µM | > 100 | > 100 µM | > 100 µM | > 100 µM |  | > 100 µM |  |  |  |  |  |  |  |  |  |  | 
19 | COc1ccc(C2=Nc3c/c(=C\c4c(O)[nH]c5ccc(Cl)cc45)ccc3=N2)cc1 |  | 3.67 µM | 4.42 µM | 2.51 |  | 3.81 µM |  |  |  |  | 1.29 | 2.45 | 1.24 |  | 1.94 µM |  |  |  |  | 
20 | COc1ccc2nc(NCN3C(=O)c4ccccc4C3=O)sc2c1 | > 100 µM | > 100 µM | > 100 µM |  | > 100 µM | > 100 µM | > 100 µM | > 100 µM | > 100 µM |  |  |  |  |  |  |  |  |  | > 100 | 
